In brackets after ≈: the same amount, converted by molar mass.
How the values were obtained:
[1] = system: M. tuberculosis inside the host macrophage; assay: QIM: Quantification of Intracellular Mycobacteria (intracellular growth assay, phenotypic cell-based); settings: Mycobacterium tuberculosis; MIC, 80% bacterial growth inhibition; intracellular growth; read-out: QIM
Description: Accordingly, a phenotypic cell-based assay, suitable for high throughput screening, which allows for the search of compounds that would prevent M. tuberculosis multiplication inside the host macrophage was utilized (WO2010003533A2), overcoming many of the numerous and burdensome steps involved in previous methodologies (Arain et al., 1996).
(§1) A 120,000 small molecule compound library was screened using a validated phenotypic cell-based assay (WO2010003533A2). Active compounds from the primary screen were confirmed via dose response in the intracellular (QIM) assay and an in vitro (QUM) assay, wherein the abbreviation “QIM” stands for Quantification of Intracellular Mycobacteria and the abbreviation “QUM” stands for Quantification of in vitro grown Mycobacteria. […] The MIC is the minimum concentration of compound required to obtain 80% bacterial growth inhibition.
(§2) The imidazopyridine compounds (scaffolds Ia and Ib; see Table 1) underwent derivatization according to the methods outlined below (Schemes 1-13). Resulting derivatives were examined for inhibitory activity (MIC) using the assays described above (Example 1) and the results are summarized in Table 1.

[2] = system: in vitro grown Mycobacteria (M. tuberculosis); assay: QUM: Quantification of in vitro grown Mycobacteria (in vitro growth fluorescence assay); assay type: cell-based; settings: Mycobacterium tuberculosis; MIC, 80% bacterial growth inhibition; in vitro growth; read-out: QUM
Description: as §1, §2

SMILES	MIC [1] [µM]	MIC [2] [µM]
COC(=O)[C@H](Cc1ccccc1)NC(=O)c1c(C)nc2ccccn12 [Compound 25, (S)-Methyl 2-(2-methylimidazo[1,2-a]pyridine-3-carboxamido)-3-phenylpropanoate]	> 20	> 20
Cc1nc2ccc(C#N)cn2c1C(=O)NCc1ccccc1 [Compound 36, N-Benzyl-6-cyano-2-methylimidazo[1,2-a]pyridine-3-carboxamide]	> 20	> 20
Cc1nc2c(O)cccn2c1C(=O)NCc1ccccc1 [Compound 43, N-Benzyl-8-hydroxy-2-methylimidazo[1,2-a]pyridine-3-carboxamide]	> 20	> 20
CCc1nc2cc(Cl)ccn2c1C(=O)NCc1ccc(OC(F)(F)F)cc1 [Compound 102, 7-Chloro-2-ethyl-N-(4-(trifluoromethoxy)benzyl)imidazo[1,2-a]pyridine-3-carboxamide]	1 to 20 (≈ 0.398 to 7.96 µg/mL)	< 1
CCc1nc2cc(Cl)ccn2c1C(=O)NCc1ccc(-c2ccc(C(F)(F)F)cc2)cc1 [Compound 120, 7-Chloro-2-ethyl-N-((4′-(trifluoromethyl)biphenyl-4-yl)methyl)imidazo[1,2-a]pyridine-3-carboxamide]	< 1	< 1
CCc1nc2cc(Cl)ccn2c1C(=O)NCc1ccc(-c2ccc(OC)cc2)cc1 [Compound 118, 7-Chloro-2-ethyl-N-((4′-methoxybiphenyl-4-yl)methyl)imidazo[1,2-a]pyridine-3-carboxamide]	< 1	< 1
CCc1nc2cc(Cl)ccn2c1C(=O)NCc1ccc(Oc2ccc(OC(F)(F)F)cc2)nc1 [Compound 195, 7-Chloro-2-ethyl-N-((6-(4-(trifluoromethoxy)phenoxy)pyridin-3-yl)methyl)imidazo[1,2-a]pyridine-3-carboxamide]	1 to 20 (≈ 0.491 to 9.82 µg/mL)	1 to 20 (≈ 0.491 to 9.82 µg/mL)
CCc1nc2ccc(Cl)cn2c1C(=O)NCc1ccc(N2CCC(Oc3ccc(C(F)(F)F)cc3)CC2)cc1 [Compound 164, 6-Chloro-2-ethyl-N-(4-(4-(4-(trifluoromethyl)phenoxy)piperidin-1-yl)benzyl) imidazo[1,2-a]pyridine-3-carboxamide]	< 1	< 1
CCc1nc2cc(O)ccn2c1C(=O)NCc1ccc(OC(F)(F)F)cc1 [Compound 105, 2-Ethyl-7-hydroxy-N-(4-(trifluoromethoxy)benzyl)imidazo[1,2-a]pyridine-3-carboxamide]	> 20	> 20
CCc1nc2cc(Cl)ccn2c1C(=O)NCc1ccc(N2CCC(COC(C)C)CC2)cc1 [Compound 292, 7-Chloro-2-ethyl-N-(4-(4-(isopropoxymethyl)piperidin-1-yl)benzyl)imidazo[1,2-a]pyridine-3-carboxamide]	< 1	< 1
CCc1nc2cc(Cl)ccn2c1C(=O)NCc1ccc(-c2ccncc2)cc1 [Compound 134, 7-Chloro-2-ethyl-N-(4-(pyridin-4-yl)benzyl)imidazo[1,2-a]pyridine-3-carboxamide]	< 1	1 to 20 (≈ 0.391 to 7.82 µg/mL)
CCc1nc2cc(Cl)ccn2c1C(=O)NCc1ccc(N2CCCC2)cc1 [Compound 212, 7-Chloro-2-ethyl-N-(4-(pyrrolidin-1-yl)benzyl)imidazo[1,2-a]pyridine-3-carboxamide]	< 1	< 1
Cc1nc2c(C)cccn2c1C(=O)NCc1ccccc1 [Compound 30, N-Benzyl-2,8-dimethylimidazo[1,2-a]pyridine-3-carboxamide]	> 20	> 20
CCc1nc2ccc(Cl)cn2c1C(=O)NCc1ccc(N2CCCCCC2)cc1 [Compound 221, N-(4-(Azepan-1-yl)benzyl)-6-chloro-2-ethylimidazo[1,2-a]pyridine-3-carboxamide]	< 1	< 1
Cc1ccc2nc(C)c(C(=O)NCc3ccccc3)n2c1 [Compound 32, N-Benzyl-2,6-dimethylimidazo[1,2-a]pyridine-3-carboxamide]	< 1	< 1
